Test results: patent publication US9913838B2, “Methods of treating cancer using compositions comprising perillyl alcohol derivative” (NEONC TECHNOLOGIES INC., priority 2010, dated 2018)
Entries after “also recorded” stand apart in the source; their conditions may differ.

Columns and labels:
[1] = system: A172 human glioma cells; test: MTT cytotoxicity assay, A172 glioma cells; conditions: A172; result in words
Excerpt: (§1) In vitro efficacy of the present composition can be determined using methods well known in the art. For example, the cytoxicity of the present monoterpene (or sesquiterpene) and/or the therapeutic agents may be studied by MTT [3-(4,5-dimethylthiazol-2-yl)-2,5-diphenyl tetrazolium bromide] cytotoxicity assay. MTT assay is based on the principle of uptake of MTT, a tetrazolium salt, by metabolically active cells where it is metabolized into a blue colored formazon product, which can be read spectrometrically. J. of Immunological Methods 65: 55 63, 1983. The cytoxicity of the present monoterpene (or sesquiterpene) derivative and/or the therapeutic agents may be studied by colony formation assay. Functional assays for inhibition of VEGF secretion and IL-8 secretion may be performed via ELISA. Cell cycle block by the present monoterpene (or sesquiterpene) derivative and/or the therapeutic agents may be studied by standard propidium iodide (PI) staining and flow cytometry. Invasion inhibition may be studied by Boyden chambers. In this assay a layer of reconstituted basement membrane, Matrigel, is coated onto chemotaxis filters and acts as a barrier to the migration of cells in the Boyden chambers. Only cells with invasive capacity can cross the Matrigel barrier. Other assays include, but are not limited to cell viability assays, apoptosis assays, and morphological assays.
(§2) First cytotoxicity assays were carried out after cells were treated with dimethyl-celecoxib (DMC) alone.
(§3) Then U87, A172 and U251 cells were treated with dimethyl celecoxib bisPOH carbamate (POH−DMC) (e.g., synthesized by the method in Example 1), and the MTT cytotoxicity assays performed (FIG. 2).
(§4) First cytotoxicity assays were carried out after cells were treated with temozolomide (TMZ) alone, the standard alkylating agent used in the treatment of malignant gliomas.
(§5) Then TMZ-resistant glioma cell lines U87, A172 and U251 cells were treated with TMZ-POH (e.g., synthesized by the method in Example 3).
(§6) To compare the cytotoxicity of Rolipram POH Carbamate (POH-Rolipram) (e.g., synthesized by the method in Example 5) with rolipram, […] inducing differentiation and apoptosis in glioma cells, A172, U87, U251 and LN229 human glioma cells were treated with either POH-Rolipram or rolipram for 48 hours.

[2] = system: U251 human glioma cells; test: MTT cytotoxicity assay, U251 glioma cells; conditions: U251; result in words
Excerpt: as §1, §2, §3, §4, §5, §6
MTT cytotoxicity assays were carried out after cells were treated with the TMZ-POH conjugate. The MTT cytotoxicity assays were carried out as described in Chen T C, et al. Green tea epigallocatechin gallate enhances therapeutic efficacy of temozolomide in orthotopic mouse glioblastoma models. Cancer Lett. 2011 Mar. 28; 302(2):100-8.

[3] = system: TMZ sensitive (U251) cells; test: Colony forming assay, TMZ sensitive U251 cells; assay type: cell-based, human; conditions: in words
Procedure: Colony forming assays were carried out after cells were treated with TMZ alone, POH alone, and the TMZ-POH conjugate. […] Cancer Lett. 2011 Mar. 28; 302(2):100-8.

[4] = system: MDA-MB-231-br; test: Colony formation assay, MDA-MB-231-br; assay type: cell-based, human; conditions: for IC50: Homo sapiens, 48 h, read-out: IC50 (concentration required to decrease colony formation by 50%)
Procedure: (§7) Depending on the cell line (and plating efficiency), 200-350 cells were seeded into each well of a 6-well plate. […] Thereafter, the drugs were removed, fresh growth medium was added, and the cells were kept in culture undisturbed for 12-16 days, during which time the surviving cells spawned colonies of descendants. Colonies (defined as groups of >50 cells) were visualized by staining for 4 hours with 1% methylene blue (in methanol), and then were counted.
(§8) The cytotoxic potency of TMZ-POH, was analyzed by colony formation assay (CFA) in a variety of human breast cancer cell lines and compared to the cytotoxicity of TMZ. We used estrogen receptor positive cells MCF7 and T47D, the triple-negative lines MDA-MB-231, MDA-MB-468, and HCC-1937, and a brain-seeking variant of the 231 cell line, MDA-MB-231-br.

[5] = system: T47D; test: Colony formation assay, T47D; assay type: cell-based, human; conditions: for IC50: Homo sapiens, 48 h, read-out: IC50 (concentration required to decrease colony formation by 50%)
Procedure: as §7, §8

[6] = system: MDA-MB-468; test: Colony formation assay, MDA-MB-468; conditions: for IC50: Homo sapiens, MDA-MB-468, 48 h, read-out: IC50 (concentration required to decrease colony formation by 50%)
Procedure: as §7
(§9) In the case of O6-BG treatment, cells were pretreated with 10 μM O6-BG for one hour before addition of TMZ or TMZ-POH. After 24 hours, another 10 μM O6-BG was added to the medium. Another 24 hours later, drug-laced medium was removed, and fresh medium without drugs was added. Thereafter, cells remained undisturbed until staining with methylene blue.
as §8

[7] = system: MCF7; test: Colony formation assay, MCF7; conditions: for IC50: Homo sapiens, MCF7, 48 h, read-out: IC50 (concentration required to decrease colony formation by 50%)
Procedure: as §7, §9, §8

[8] = system: D3H2LN cells implanted into the brains; test: Intracranial breast cancer tumor model in nude mice; assay type: in vivo; conditions: for median survival: TMZ-POH s.c., TMZ via gavage
Excerpt: In FIG. 27A, all surviving animals were imaged again on days 21, 28, and 36. […] Arrow labeled Rx indicates the time period of treatment.
All animal protocols were approved by the Institutional Animal Care and Use Committee (IACUC) of University of Southern California, and all rules and regulations were followed during experimentation on animals. Athymic mice (Harlan, Inc., Indianapolis, Ind.) were implanted intracranially with 2×10^5 cells. A subline of MDA-MB-231 cells called D3H2LN was used, which was transfected with the firefly luciferase gene and had been selected for aggressive growth and metastasis in vivo. Ten days after intracranial implantation, efficient tumor take was confirmed in all animals via non-invasive whole-body bioluminescent imaging. For this purpose, mice were intravenously injected with 50 mg/kg D-Luciferin (Perkin Elmer, Waltham, Mass.) and imaged using the Xenogen IVIS-200 Imaging System (Caliper/Perkin Elmer). Images were analyzed by region-of-interest (ROI) analysis using the Living Image software package (Caliper/Perkin Elmer) to quantitate light output (radiance, i.e., photons per second per square centimeter per steradian).
Group 1 was the control group that received vehicle only (45% glycerol, 45% ethanol, 10% DMSO) via subcutaneous injection. Group 2 was the experimental group that received 25 mg/kg TMZ-POH via subcutaneous (s.c.) injection. Group 3 was the comparison group and animals received 25 mg/kg TMZ via gavage. Treatment was once per day for a period of 10 days (i.e., 10 treatments total). Thereafter, all surviving animals were imaged again, once per week.
We used D3H2LN cells, which are a bioluminescent variant of the MDA-MB-231 cell line with aggressive tumor growth in mice. These cells were implanted into the brains of nude mice, and 10 days later all animals were imaged for luciferase expression in order to confirm efficient tumor take.
Animals were distributed into three groups and treated once daily for 10 days with vehicle alone (control), 25 mg/kg TMZ-POH, or 25 mg/kg TMZ.

[9] = 25 mg/kg once daily for 10 days
[10] = low micromolar concentrations, 48 hours, in words

SMILES | cytotoxicity (MTT assay) [1] | cytotoxicity (MTT assay) [2] | cytotoxicity (colony forming assay) [3] | IC50 [4] [µM] | IC50 ([5]; T47D) [µM] | IC50 [6] [µM] | IC50 [7] [µM] | additional survival after the termination of treatment [8, 9] [days] | median survival [8, 9] [days] | further results
Cn1nnc2c(C(N)=O)ncn2c1=O [TMZ, temozolomide, reference compound] | minimal cytotoxicity | minimal cytotoxicity | demonstrated cytotoxicity | 3.8 | 20 | 195 | 513 | 8 | 28 | 
C=C(C)[C@@H]1CC=C(COC(=O)NC(=O)c2ncn3c(=O)n(C)nnc23)CC1 [TMZ-POH] | substantially higher kill rates | substantially higher kill rates; also recorded: demonstrated cytotoxicity | demonstrated cytotoxicity; also recorded: substantially greater potency compared to POH alone | 1.2 | 4.6 | 31 | 33 | 30 | 50 | Differential (−fold) ([4]; fold increase in potency of TMZ-POH compared to TMZ, MDA-MB-231-br): 3.2 −fold; colony formation (CFA) [4, 10]: prevented colony formation; Differential (−fold) ([5]; fold increase in potency of TMZ-POH compared to TMZ, T47D): 4.3 −fold; colony formation (CFA) [5, 10]: prevented colony formation; Differential (−fold) ([6]; fold increase in potency of TMZ-POH compared to TMZ, MDA-MB-468): 6.3 −fold; colony formation (CFA) [6, 10]: prevented colony formation; Differential (−fold) ([7]; fold increase in potency of TMZ-POH compared to TMZ, MCF7): 15.5 −fold; colony formation (CFA) [7, 10]: prevented colony formation; status of animals by day 36 ([8]; 25 mg/kg once daily for 10 days, in words): still alive with no obvious signs of distress; bioluminescent imaging after 10-day treatment period ([8]; 25 mg/kg once daily, in words): only small changes in radiance; increase of ROI radiance ([8]; between days 10 and 21, representative mouse, 25 mg/kg once daily 10 days): 1.7 fold; ROI radiance ([8]; day 10, representative mouse): 1.11E7 photons per second per square; ROI radiance ([8]; day 21, representative mouse): 1.92E7 photons per second per square; ROI radiance ([8]; day 43, representative mouse): 1.88E8 photons per second per square
